Data as given in article PMC9952391, “The Role of Acetyl Zingerone and Its Derivatives in Inhibiting UV-Induced, Incident, and Delayed Cyclobutane Pyrimidine Dimers” (Antioxidants, 2023).

Legend:
[1] = system: delayed (dark) CPDs (dCPDs) in Mel-a cells; experiment: dCPD assessment by DNA ELISA post ssUV, Mel-a; format: cell-based, mouse; conditions: Mel-a, 50 µg/mL, 24–36 h preincubation, 0.5 to 4 h post ssUV, Figure 4C
From the text: (§1) For UV exposures, we used a “SOL-UV6 ultraviolet solar simulator” from Newport irradiators. It is equipped with a Xenon arc lamp where the output is varied using the integrated variable attenuator aperture, which provides the ability to vary the output from 10% to 100% of the maximum available solar constants. The output spectrum is flat from 320 nm to 400 nm and no values are below 300 nm. This is abbreviated as “ssUV” for “solar-simulated UV” throughout the text. Various cell types seeded at ~50% confluency, were treated with the AZ and analogs at concentrations mentioned in the data figures for 24–h. Cells at ~80–90% confluency (untreated controls), were washed twice with PBS and exposed to 18 kJ/m^2 of ssUV in minimal amount of PBS (ex. 2 mL PBS in a 60 mm cell culture dish) without any dish lid in place. […] The ssUV apparatus was monitored almost daily using UV meters for any emissions below 300 nm. The dose was decided based upon the 80–90% cell survival post UV exposure. After exposure, one time point was collected immediately to assess iCPDs, whereas more dishes were incubated in cell culture medium, inside the cell culture incubator, for various time points to be collected post UV to assess dCPDs. For dCPD induction, it is important that the cell culture incubator is not opened for at least 30 min (the first time point post UV) to avoid possible interference from the CO2/O2 ratio, which will be altered upon opening the incubator doors. Cells were collected by scraping and washed once with PBS, which was followed by DNA isolation using a Quick DNA miniprep Kit (Cat. D3024, Zymo Research, Irvine, CA, USA). CPDs were assessed using our previously established DNA ELISA protocols. In brief, ELISA was performed using mouse monoclonal Anti-CPD (Cat. CAC-NM-DND-001, Clone TDM-2, CosmoBio, Inc., Carlsbad, CA, USA). […] A measure of 50 µL of 2M H2SO4 was used to stop the reaction as soon as the color developed (5–10 min incubation in substrate), and OD was measured at 490 nm using a Synergy-2 multimode microplate reader (BioTek, Winooski, VT, USA).

[2] = system: incident CPDs (iCPDs) in HaCaT cells; experiment: iCPD assessment by DNA ELISA after ssUV, HaCaT; format: cell-based, human; conditions: 250 µg/mL, 24 h preincubation
From the text: as §1

[3] = system: Xpa, Xpc, Mitf, Xrcc1 expression in Mel-c; experiment: qPCR expression of NER pathway genes, Mel-c; format: cell-based, mouse; conditions: 24 h incubation
Experimental: (§2) Various cell types were collected 24-h post incubation with 200 µg/mL AZ and MBPD, with and without ssUV exposure. RNA was isolated using a Quick-RNA isolation kit (Cat. R1050, Zymo Research). The cDNA was prepared using a High-Capacity cDNA Reverse Transcription Kit (Cat. 4368814, ThermoFisher Scientific). The gene expression of XPA, XPC, and MITF genes was assessed using the following primers. β-actin was used as an internal control for normalizations and data analyses. F1-R1 and F2-R2 represents two primer pairs which were used in the qPCR experiments.

[4] = system: MMP-3; parameters: method as in PMID 31465741; conditions: in vitro assays; cited from earlier work
[5] = system: MMP-12; parameters: method as in PMID 31465741; conditions: in vitro assays; cited from earlier work
[6] = system: incident CPDs (iCPDs) in pigmented C57BL/6 melanocytes (Mel-a); experiment: iCPD assessment by DNA ELISA after ssUV, Mel-a; format: cell-based, mouse
From the text: (§3) For UV exposures, we used a “SOL-UV6 ultraviolet solar simulator” from Newport irradiators. It is equipped with a Xenon arc lamp where the output is varied using the integrated variable attenuator aperture, which provides the ability to vary the output from 10% to 100% of the maximum available solar constants. The output spectrum is flat from 320 nm to 400 nm and no values are below 300 nm. This is abbreviated as “ssUV” for “solar-simulated UV” throughout the text. Various cell types seeded at ~50% confluency, were treated with the AZ and analogs at concentrations mentioned in the data figures for 24–h. Cells at ~80–90% confluency (untreated controls), were washed twice with PBS and exposed to 18 kJ/m^2 of ssUV in minimal amount of PBS (ex. 2 mL PBS in a 60 mm cell culture dish) without any dish lid in place. […] The ssUV apparatus was monitored almost daily using UV meters for any emissions below 300 nm. The dose was decided based upon the 80–90% cell survival post UV exposure. After exposure, one time point was collected immediately to assess iCPDs, whereas more dishes were incubated in cell culture medium, inside the cell culture incubator, for various time points to be collected post UV to assess dCPDs. For dCPD induction, it is important that the cell culture incubator is not opened for at least 30 min (the first time point post UV) to avoid possible interference from the CO2/O2 ratio, which will be altered upon opening the incubator doors. Cells were collected by scraping and washed once with PBS, which was followed by DNA isolation using a Quick DNA miniprep Kit (Cat. D3024, Zymo Research, Irvine, CA, USA). CPDs were assessed using our previously established DNA ELISA protocols. In brief, ELISA was performed using mouse monoclonal Anti-CPD (Cat. CAC-NM-DND-001, Clone TDM-2, CosmoBio, Inc., Carlsbad, CA, USA). Flat-bottom, 96-well plates (Cat. 2801, Thermo Scientific, Waltham, MA, USA) were coated overnight with 50 µL of protamine sulphate (0.005–0.05%, Cat. P3369, Sigma, St. Lois, MO, USA) in distilled water. After washing twice with water, heat-denatured DNA was plated in triplicates from each sample, into the protamine sulphate coated plate wells (50–100 ng/well in 50 µL PBS) and incubated overnight at 37 °C. The plates were washed 5 times with 200 µL of PBST (PBS containing 0.05% Tween-20 Cat. P7949, Sigma), and blocked with 2–4% FBS in PBST (blocking buffer) for 1 h at room temperature (RT). The plates were incubated with 100 µL of a 1:1000 dilution of anti-CPD antibody in blocking buffer, and incubated for 30 min at 37 °C, which was followed by 5 washes in PBST. Next, the plates were incubated with 100 µL of a 1:2000 dilution of Biotin-F(ab’)2 fragment of anti-mouse IgG(H+L) (Cat. B-2763, Life Technologies) in blocking buffer for 30 min at 37 °C. Detection was conducted using 100 µL of a 1:10,000 dilution of Streptavidin HRP (Cat. 434323, Life Technologies) in 2% FBS for 30 min at 37 °C, which was followed by 5 washes. The plates were washed once with citrate phosphate buffer (24.3 mM citric acid monohydrate, J.T. Baker Cat. 0110-01- and 51.4-mM sodium phosphate dibasic, Sigma Cat. S7907, pH 5.0). The o-phenylene diamine dihydrochloride (Cat. P8287-50TAB, Sigma) was used as a HRP substrate at 400 µg/mL in citrate phosphate buffer for 5–10 min. A measure of 50 µL of 2M H2SO4 was used to stop the reaction as soon as the color developed (5–10 min incubation in substrate), and OD was measured at 490 nm using a Synergy-2 multimode microplate reader (BioTek, Winooski, VT, USA).

[7] = system: melanocytes; parameters: method as in PMID 31538664; conditions: 25 µg/mL; cited from earlier work
[8] = system: human keratinocytes (HaCaT); experiment: Cell survival assay (Alamar blue), keratinocytes; format: cell-based; conditions: 24 h pre-incubation, Supplementary Figure S2
[9] = system: incident CPDs (iCPDs) in albino C57BL/6 melanocytes (Mel-c); experiment: iCPD assessment by DNA ELISA after ssUV, Mel-c; format: cell-based, mouse; conditions: various doses up to 1 mg/mL, 24 h, Figure 4B
From the text: as §1

[10] = system: incident CPDs (iCPDs) in NBHF cells; experiment: iCPD assessment by DNA ELISA after ssUV, NBHF; format: cell-based, human
From the text: as §3

[11] = system: Xpa, Xpc, Mitf, Xrcc1 expression in Mel-a; experiment: qPCR expression of NER pathway genes, Mel-a; format: cell-based, mouse
Experimental: as §2

[12] = system: melanin in Mel-a cells; experiment: Melanin amount in melanocytes cultured in varied tyrosine; format: cell-based; conditions: 50 µg/mL
Experimental: The amino acid tyrosine is essential for melanin synthesis, and it is added to the OptiMem medium at a proprietary concentration by ThermoFisher. Assuming this concentration to be “100% tyrosine”, we purchased the “custom-prepared, tyrosine-free” medium from ThermoFisher. This medium lacked tyrosine or its precursors, which include L-tyrosine, L-tyrosine-2Na-2H2O, L-tyrosine-Di-sodium salt, Hypoxanthine, and Sodium Hypoxanthine. Mel-a (pigmented mouse melanocyte) cells were cultured in regular cell culture medium containing 100% tyrosine, and in medium containing 20%, 4%, or 0% of the total tyrosine amount. This was achieved by diluting the regular OptiMem with the one containing no tyrosine (tyrosine-free, 0% tyrosine). […] Since the cells cultured in 0%-tyrosine medium lost their pigment over time (Figure 5) and the cell pellets were almost white or opaque in color, we assumed that the minimal amount of tyrosine from the horse serum used in the cell culture medium was not sufficient for melanin synthesis. To estimate the amount of melanin, 3 × 10^6–5 × 10^6 cells were lysed in 1M sodium hydroxide (NaOH) by heating them at 100 °C for 1–2 h, which was followed by a 10-min spin at 14,000 rpm at room temperature to remove any cell debris. Absorbance of the supernatant was recorded using the supernatant in a 96-well plate in triplicates from each sample, at 460–490 nm. Synthetic melanin (Cat. M0418, Sigma) was dissolved in methanol and used as a positive control to generate standard curves to estimate the melanin amount in cell lysates. The number of cells in each pellet was used as a normalization factor for each experimental condition. In a complementary experiment, cells were first bleached out of melanin completely by culturing them in tyrosine-free medium, followed by 100/20/4/0% tyrosine (not shown) treatment. This seemed to be cytotoxic, comparatively more so in 100% tyrosine, probably owing to the toxicity of the sudden rush of melanin derivatives and the oxidative stress generated during melanin synthesis.

[13] = system: nitrotyrosine / nitric oxide synthase (NOS) activity in Mel-a melanocytes; experiment: Immunofluorescence for nitrotyrosine (marker of NOS activity); format: cell-based, mouse; conditions: 50 µg/mL, 24–36 h
Experimental: Posttranslational modification nitrotyrosine was used as a marker of nitric oxide synthase (NOS) activity. Melanocytes were cultured on collagen-coated, glass-bottom dishes (cat. P35G-1.5-14-C, MatTek, Ashland, MA, USA). After various treatments, cells were fixed with 4% formaldehyde for 10 min at RT, washed with PBS, and permeabilized with 0.5% Triton-X in PBS for 10 min. After blocking for non-specific antibody binding using 5% goat serum (Cat. 16210064, ThermoFisher Scientific) and 1% globulin free BSA (Cat. 001-000-161, Jackson ImmunoResearch, West Grove, PA, USA) in 0.1% Triton-x in PBS (blocking buffer) for 2 h at room temperature, cells were incubated with 1:1000 dilution of anti-nitrotyrosine antibody (Cat. A-21285, ThermoFisher Scientific) overnight at 4 °C. Detection was conducted using Alexa Fluor 488 Goat Anti-rabbit IgG (Cat. A-11008, Life Technologies). Imaging was performed using a ZEISS Axio Observer microscope. Approximately 5–10 images per condition, with ~70–100 cells per image, were quantitated for nitrotyrosine fluorescence using ImageJ software.

[14] = system: MMP-1; parameters: method as in PMID 31465741; conditions: in vitro assays; cited from earlier work

## COc1cc(CC(C(C)=O)C(C)=O)ccc1O [AZ, 3-(4-Hydroxy-3-methoxybenzyl)-pentane-2,4-dione]
[1]
  Inhibition of delayed CPDs (dCPDs): inhibited dCPD formation almost completely
[2]
  Blockade of iCPDs: ~ 50%
[3]
  Gene expression of Xrcc1: remained unaffected
[3]; no UV
  Gene expression of Xpa, Xpc and Mitf (NER pathway): remained unaffected
[4]
  Inhibition of MMP-3 activity: inhibited
[5]
  Inhibition of MMP-12 activity: inhibited
[6]; 50 µg/mL, 24-h preincubation, 18 kJ/m^2 ssUV
  Blockade of iCPDs: ~ 30%
[6]; various doses up to 1 mg/mL, 24 h, Figure 4A
  iCPD inhibition across doses: blocked iCPD generation in a dose-dependent manner
[7]
  Effect on iCPDs: without any significant effect
  Inhibition of delayed or dark CPDs (dCPDs): inhibition
[8]
  Cytotoxicity at 1000 µg/ml: cytotoxic
[9]
  iCPD inhibition across doses: no significant impact
[10]; 1 mg/mL, 24 h preincubation
  Blockade of iCPDs: ~ 50%
[10]; various doses, Figure 3C / Supplementary Figure S2B
  iCPD inhibition across doses: minimal effect
[11]; 200 µg/ml, 24 h, then 18 kJ/m2 ssUV, various time points, relative to UV-induced upregulation
  NER pathway gene expression post UV exposure: elevated slightly
[11]; 24 h incubation, no UV, qPCR
  Gene expression of Xpa, Xpc and Mitf (NER pathway): upregulated
[11]; 24 h incubation, qPCR
  Gene expression of Xrcc1: remained unaffected
[12]; different tyrosine variations
  Impact on melanin: did not show any impact
[12]; 2–3 weeks incubation
  Cell death on longer incubation: 10–15%
[13]
  Amount of nitrotyrosine (NOS activity marker): reduced the amount of nitrotyrosine
[14]
  Inhibition of MMP-1 activity: inhibited

## COc1ccc(CC(C(C)=O)C(C)=O)cc1OC [DMBPD, 3-(3,4-Dimethoxy-benzyl)-pentane-2,4-dione]
[10]; 50 µg/mL, 24 h preincubation, 18 kJ/m^2 ssUV, Figure 3B
  Inhibition of iCPD formation: inhibited iCPD formation to varying extents
